In article PMC11109052, “Metabolism characterization and toxicity of N-hydap, a marine candidate drug for lung cancer therapy by LC–MS method” (Natural Products and Bioprospecting, 2024):
Entries after “also recorded” stand apart in the source; their conditions may differ.

What was measured:
[1] = system: normal wild-type mice; assay: Toxicity of 7-day gavage in normal wild-type mice
Description: During the continuous gavage administration of N-hydap (2, 5, 10 mg/kg) to mice, their body weight was monitored daily and the mice’s activity and mental state were closely observed. […] To assess the extent of injury in the heart, liver, and kidneys, cardiac LDH, plasma ALT, AST, and Cr were measured as biochemical markers (Fig. 7B–D). Additionally, blood routines were examined, including RBC (10^12/L), HCT (%), HGB (g/dL), WBC (10^9/L), PLT (10^9/L), and Lymphocytes (%), which were used as indicators to evaluate spleen toxicity (Fig. 7E). […] To investigate this further, HE staining on tissue sections was performed from both the control group and the highest dose group (10 mg/kg).
Fig. 7 Normal wild-type mice were administered by N-hydap (2, 5, 10 mg/kg) gavage for 7 days. A Changes in body weight in mice. B Cardiac LDH level. C, D Plasma ALT, AST and Cr levels. E Blood routine indicators including RBC, HCT, HGB, WBC, PLT and Lymphocytes. F H&E staining of sections of primary organs, original magnification ×200 (mean ± S.D, n = 5–6/group). ns, no significance, were compared with control group.

[2] = system: Cyp2b10; assay: Real-time PCR mRNA level after 7 days gavage: Cyp2b10; assay type: in vivo; settings: mice, 2, 5, 10 mg/kg p.o. 7 days
Description: Mice were randomly divided into four groups, with eight animals in each group. The mice received oral pretreatment with N-hydap for 7 days at doses of 2, 5, and 10 mg/kg/day, which were considered as the low dose, medium dose, and high dose, respectively. Correspondingly, the control group received PBS. On the 8th day, the liver and kidneys were removed, and organs from eight mice per group were combined to prepare MLMs and MKMs using the detailed procedures above. Subsequently, we determined the activity of CYP and UGT enzymes by specific substrate metabolized with MLMs (0.5 mg/mL) and MKMs (0.2 mg/mL) in vitro. […] In the ex vivo experiments, the activity of enzymes was measured by quantifying the production of various metabolites (nM/mg protein/min). […] The measurements were performed using multiple reaction monitoring (MRM) transitions, which are specific mass spectrometry transitions used for quantification. […]
Total RNA from liver and kidney samples taken after 7 days of N-hydap gavage was extracted using the Animal Total RNA Isolation Kit (Foregene, Chengdu, Sichuan, China) following the manufacturer’s instructions. The concentrations of total RNA were determined by a nucleic acid concentration tester at 260/280 nm. […]

[3] = system: MLMs; assay: Kinetics of N-hydap glucuronidation in MLMs; assay type: in vitro ADME, mouse; settings: MLM
Description: In this study, the rats were executed by drawing blood from the abdominal aorta and mice were sacrificed with cervical dislocation before the liver and kidneys were excised. The liver and kidneys were removed, and washed with chilled cleansing solution (contains 8 mM KH2PO4, 5.6 mM EDTA·K2·2H2O, 1 mM DTT and 229.6 μM PMSF), homogenized in a tissue homogenate buffer with a pH of 7.4, (consisting of […], 8 mM K2HPO4, 250 mM sucrose, 1 mM EDTA·K2·2H2O and 229.6 μM PMSF). Subsequently, the homogenate was centrifuged at 10,400 rpm at 4 °C for 15 min, and the supernatant was then centrifuged at 35,000 rpm at 4 °C for 60 min. A 250 mM sucrose buffer was added to the pellet to reconstitute and the resuspension was stored at − 80 °C until use. Microsome protein concentrations were measured by Omni-Easy™ Instant BCA Protein Assay Kit.
Various microsomes including HLMs, HKMs, HIMs, RLMs, RKMs, MLMs and MKMs were involved in CYP and UGT reactions of N-hydap. […]
The substrate concentrations used for HLMs were 0.05, 0.5, 2, 2.5, 5, 10, 25, 50, and 100 μM. […] The rates of N-hydap-G by enzymes were expressed as nmol/mg/min, representing the amount of metabolites formed per minute per milligram of protein. Kinetic parameters were determined by analyzing the Eadie–Hofstee plots. […]

[4] = mice, 2, 5, 10 mg/kg gavage, 7 days

**Q.** How did the “Toxicity LD50, experimental results” value ([1]; Table 4 experimental column) turn out when CC1CCC2C(C=CC(C)C2C(=O)c2c(O)c(C3(O)CCC(O)C4OC43)cn(O)c2=O)C1 (stereo not drawn) [N-hydap, N-Hydroxyapiosporamide] was run?
**A.** High security

**Q.** And the behavior during gavage [1, 4]?
**A.** did not exhibit any abnormal behavior

**Q.** What about the “biochemical markers (cardiac LDH, plasma ALT, AST, Cr) and blood routine indicators vs control” value [1, 4] of the same compound?
**A.** did not show any significant differences

**Q.** What about the body weight [1, 4] of the same compound?
**A.** No significant changes

**Q.** And the “HE staining of important tissues and organs” value ([1]; mice, highest dose group 10 mg/kg, 7 days)?
**A.** maintained their structural integrity

**Q.** What about the “toxicity of continuous gavage at normal doses” value ([1]; normal wild mice, 2, 5, 10 mg/kg, 7 days) of the same compound?
**A.** did not result in significant toxicity; also recorded: did not exhibit any toxicity

**Q.** What about the “mRNA levels of Cyp2b10” value ([2]; kidneys) of the same compound?
**A.** slight reduction

**Q.** What about the “decrease of mRNA levels of Cyp2b10” value ([2]; liver) of the same compound?
**A.** 35%

**Q.** What about the Km [3] of the same compound?
**A.** 263 µM
